Values of other authors, collected in patent US20100055067A1, “PERFLUOROCARBON CONJUGATE AS A BLOOD SUBSTITUTE” (SNU R&DB Foundation, priority 2008, published 2010).
Read-outs that look alike come from different tables or passages of the source.

What was measured:
[1] = relatively low boiling point

FC(F)(F)C(F)(F)C(F)(F)C(F)(F)N(C(F)(F)C(F)(F)C(F)(F)C(F)(F)F)C(F)(F)C(F)(F)C(F)(F)C(F)(F)F [FC-43, perfluorotributylamine]
accumulation in the internal organs (administered to test animals, liver and spleen, resulting in an adverse effect to the animals): accumulate in the internal organs such as liver and spleen for a long period of time

FC1(F)OC(F)(F)C(F)(F)C1(F)F [FX-80, perfluorotetrahydrofuran]
damage to the lung [1]: can cause substantial damage to the lung

FC(OC(F)(F)C(F)(OC(F)(F)C(F)(OC(F)(F)C(F)(OC(F)(F)C(F)(F)C(F)(F)F)C(F)(F)F)C(F)(F)F)C(F)(F)F)C(F)(F)F (stereo not drawn) [Freon E-4, 2-monohydrononacosafluoro-3,6,9,1 2-tetraoxa-5,8,11-trimethylpentadecan]
accumulation in the internal organs (in vivo): accumulate in the internal organs such as liver and spleen for a long period of time
